Measurements as given in patent US9012651B2, “TRPV3 modulators” (AbbVie Inc., priority 2011, dated 2015).

tested on: TRPV3; assay: not given; conditions: TRPV3 activation; relatively weak and nonspecific across TRPs; cited from earlier work

| SMILES | EC50 [nM] |
| --- | --- |
| c1ccc(B(OB(c2ccccc2)c2ccccc2)c2ccccc2)cc1 [DPBA, diphenylboronic anhydride] | ~40000 |
| NCCOB(c1ccccc1)c1ccccc1 [Example 2-APB, 2-aminoethoxydiphenylborate] | ~40000 |

biological target: human TRPV3 receptors (Homo sapiens (Human), UniProt Q8NET8); assay: Calcium flux assay (FLIPR TETRA), inhibition of the 2-APB response; format: cell-based; conditions: recombinant HEK293 cells stably expressing TRPV3, Calcium-4 dye, 2-APB at its EC80
Sequence (Q8NET8 whole entry): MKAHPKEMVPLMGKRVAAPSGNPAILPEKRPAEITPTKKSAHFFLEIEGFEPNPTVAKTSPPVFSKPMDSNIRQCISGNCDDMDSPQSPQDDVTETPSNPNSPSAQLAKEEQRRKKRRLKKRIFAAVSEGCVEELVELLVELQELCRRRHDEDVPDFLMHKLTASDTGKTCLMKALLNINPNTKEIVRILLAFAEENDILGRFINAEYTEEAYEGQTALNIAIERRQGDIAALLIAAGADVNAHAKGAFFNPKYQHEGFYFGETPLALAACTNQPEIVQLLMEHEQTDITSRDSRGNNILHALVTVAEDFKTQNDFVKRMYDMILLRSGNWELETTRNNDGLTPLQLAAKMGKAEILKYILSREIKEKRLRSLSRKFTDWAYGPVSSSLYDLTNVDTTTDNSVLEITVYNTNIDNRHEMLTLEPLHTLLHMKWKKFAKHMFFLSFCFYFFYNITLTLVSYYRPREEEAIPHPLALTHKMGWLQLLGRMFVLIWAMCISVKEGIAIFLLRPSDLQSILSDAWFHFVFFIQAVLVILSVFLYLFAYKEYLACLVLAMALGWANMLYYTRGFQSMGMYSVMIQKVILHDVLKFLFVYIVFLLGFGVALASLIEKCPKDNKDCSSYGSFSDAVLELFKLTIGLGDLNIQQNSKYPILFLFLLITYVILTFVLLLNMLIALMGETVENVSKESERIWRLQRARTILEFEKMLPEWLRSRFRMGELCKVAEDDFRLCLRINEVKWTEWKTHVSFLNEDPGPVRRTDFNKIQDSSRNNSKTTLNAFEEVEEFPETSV
Summary of the method: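 HEK293 cells stably expressing human and mouse TRPV3, plated the day before and dye-loaded 90-120 min in the dark, read on FLIPR Tetra. Peak fluorescence increase over baseline was expressed as percent of the maximal 2-APB response without compound.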

| SMILES | IC50 [nM] |
| --- | --- |
| CC(C)[C@H](CO)NCc1nc(-c2ccc(C(F)(F)F)nc2)ccc1F [Example 28, (2R)-2-({[5-fluoro-6′-(trifluoromethyl)-2,3′-bipyridin-6-yl]methyl}amino)-3-methylbutan-1-ol] | 950 |
| CC1CCN(C(=O)c2cccc(-c3ccc(F)c(CN[C@@H](CO)C(C)C)n3)c2)CC1 [Example 46, {3-[5-fluoro-6-({[(2R)-1-hydroxy-3-methylbutan-2-yl]amino}methyl)pyridin-2-yl]phenyl}(4-methylpiperidin-1-yl)methanone] | 2020 |
| CC(C)[C@H](CO)NCc1nc(-c2ccc(OCC(F)(F)F)nc2)ccc1F [Example 68, (2R)-2-({[5-fluoro-6′-(2,2,2-trifluoroethoxy)-2,3′-bipyridin-6-yl]methyl}amino)-3-methylbutan-1-ol] | 590 |
| CC(C)[C@@H](NCc1nc(-c2ccc(C(F)(F)F)cc2)ccc1F)C(N)=O [Example 116, (R)-2-((3-fluoro-6-(4-(trifluoromethyl)phenyl)pyridin-2-yl)methylamino)-3-methylbutanamide] | > 20000 |
| CC(C)[C@H](CO)NCc1nc(-c2ccc(C(F)(F)F)cn2)ccc1F [Example 73, (2R)-2-({[5-fluoro-5′-(trifluoromethyl)-2,2′-bipyridin-6-yl]methyl}amino)-3-methylbutan-1-ol] | 140 |
| CC(C)[C@H](CO)NCc1nc(-c2ccc(OC(F)(F)F)cc2)ccc1F [Example 19, (2R)-2-[({3-fluoro-6-[4-(trifluoromethoxy)phenyl]pyridin-2-yl}methyl)amino]-3-methylbutan-1-ol] | 230 |
| OC[C@@H]1[C@@H]2CC[C@@H](C2)[C@@H]1NCc1cccc(-c2ccc(C(F)(F)F)cc2)n1 [Example 9, {(1R,2R,3S,4S)-3-[({6-[4-(trifluoromethyl)phenyl]pyridin-2-yl}methyl)amino]bicyclo[2.2.1]heptan-2-yl}methanol] | 3650 |
| CC(C)[C@@H](CO)NCc1cccc(-c2ccc(C(F)(F)F)cc2)n1 [Example 3, (2S)-3-methyl-2-[({6-[4-(trifluoromethyl)phenyl]pyridin-2-yl}methyl)amino]butan-1-ol] | 9380 |
| CC(C)[C@H](CO)NCc1nc(-c2cccc(OC(F)(F)F)c2)ccc1F [Example 18, (2R)-2-[({3-fluoro-6-[3-(trifluoromethoxy)phenyl]pyridin-2-yl}methyl)amino]-3-methylbutan-1-ol] | 1120 |
| CC(C)[C@H](CO)NCc1nc(-c2cccc(C(=O)N3CCCCC3)c2)ccc1F [Example 45, {3-[5-fluoro-6-({[(2R)-1-hydroxy-3-methylbutan-2-yl]amino}methyl)pyridin-2-yl]phenyl}(piperidin-1-yl)methanone] | 3470 |
| CC(C)[C@H](CO)NCc1cccc(N2CCCC2)n1 [Example 10, (2R)-3-methyl-2-({[6-(pyrrolidin-1-yl)pyridin-2-yl]methyl}amino)butan-1-ol] | 3790 |
| CC(C)[C@@H](NCc1nc(-c2ccc(C(F)(F)F)cc2)ccc1F)C(C)O (stereo partly drawn) [Example 107, (3R)-3-[({3-fluoro-6-[4-(trifluoromethyl)phenyl]pyridin-2-yl}methyl)amino]-4-methylpentan-2-ol] | 700 |
| OC[C@H](NCc1nc(-c2ccc(C(F)(F)F)nc2)ccc1F)C1CCCCC1 [Example 88, (2R)-2-cyclohexyl-2-({[5-fluoro-6′-(trifluoromethyl)-2,3′-bipyridin-6-yl]methyl}amino)ethanol] | 570 |
| CC(C)[C@H](CO)NCc1nc(N2CCc3ccc(F)cc3C2)ccc1F [Example 98, (2R)-2-({[3-fluoro-6-(7-fluoro-3,4-dihydroisoquinolin-2(1H)-yl)pyridin-2-yl]methyl}amino)-3-methylbutan-1-ol] | 320 |
| CC(C)[C@H](CO)NCc1nc(-c2ccc3ccn(C)c3c2)ccc1F [Example 64, (2R)-2-({[3-fluoro-6-(1-methyl-1H-indol-6-yl)pyridin-2-yl]methyl}amino)-3-methylbutan-1-ol] | 480 |
| Cc1ccc(S(=O)(=O)C(F)(F)F)cc1-c1ccc(F)c(CN[C@@H](CO)C(C)C)n1 [Example 59, (2R)-2-{[(3-fluoro-6-{2-methyl-5-[(trifluoromethyl)sulfonyl]phenyl}pyridin-2-yl)methyl]amino}-3-methylbutan-1-ol] | 630 |
| C=C(c1ccc(F)cc1)c1ccc(F)c(CN[C@@H](CO)C(C)C)n1 [Example 125, (2R)-2-[({3-fluoro-6-[1-(4-fluorophenyl)ethenyl]pyridin-2-yl}methyl)amino]-3-methylbutan-1-ol] | 1630 |

The next lines start with the values.

| IC50 [nM] | SMILES |
| --- | --- |
| 360 | CC(C)[C@H](CO)NCc1nc(C2CCCCC2)ccc1F [Example 129] |
| > 20000 | OC(CNCc1ccnc(-c2ccc(C(F)(F)F)cc2)n1)C(F)(F)F (stereo not drawn) [Example 179, 1,1,1-trifluoro-3-[({2-[4-(trifluoromethyl)phenyl]pyrimidin-4-yl}methyl)amino]propan-2-ol] |
| 650 | CCCN(CCC)C(=O)c1ccc(-c2ccc(F)c(CN[C@@H](CO)C(C)C)n2)cc1 [Example 277, 4-[5-fluoro-6-({[(2R)-1-hydroxy-3-methylbutan-2-yl]amino}methyl)pyridin-2-yl]-N,N-dipropylbenzamide] |
| 3820 | C[C@@H](O)[C@@H](CO)NCc1ccnc(-c2ccc(C(F)(F)F)cc2)n1 [Example 150, (2R,3R)-2-[({2-[4-(trifluoromethyl)phenyl]pyrimidin-4-yl}methyl)amino]butane-1,3-diol] |
| > 20000 | OC1(CNCc2ccnc(-c3ccc(C(F)(F)F)cc3)n2)CCCCC1 [Example 178, 1-{[({2-[4-(trifluoromethyl)phenyl]pyrimidin-4-yl}methyl)amino]methyl}cyclohexanol] |
| 480 | CC(C)[C@H](CO)NCc1nc(C2CCCC2)ccc1F [Example 220, (2R)-2-{[(6-cyclopentyl-3-fluoropyridin-2-yl)methyl]amino}-3-methylbutan-1-ol] |
| > 20000 | OC[C@@H]1CCCC[C@@H]1NCc1ccnc(-c2ccc(C(F)(F)F)cc2)n1 [Example 168, {(1R,2S)-2-[({2-[4-(trifluoromethyl)phenyl]pyrimidin-4-yl}methyl)amino]cyclohexyl}methanol] |
| > 20000 | C[C@H](O)[C@H](CO)NCc1ccnc(-c2ccc(C(F)(F)F)cc2)n1 [Example 149, (2S,3S)-2-[({2-[4-(trifluoromethyl)phenyl]pyrimidin-4-yl}methyl)amino]butane-1,3-diol] |
| 510 | CC(C)[C@H](CO)NCc1nc(C#CC2CCCCC2)ccc1F [Example 240, (2R)-2-({[6-(cyclohexylethynyl)-3-fluoropyridin-2-yl]methyl}amino)-3-methylbutan-1-ol] |

tested on: mouse Chronic Constriction Injury Model of neuropathic pain; assay: Chronic Constriction Injury (CCI) model of neuropathic pain, mechanical allodynia (von Frey); format: in vivo; conditions: CD1 mice; acute oral administration, 100 mg/kg oral dose; 1 hour pretreatment P.O.; von Frey monofilaments
Description: Chronic Constriction Injury (CCI) Model of Neuropathic Pain:
CD1 mice (Charles River) were used for these studies. Prior to testing (2-4 weeks) animals underwent a surgical procedure consisting of approximately 3 loose ligatures around the sciatic nerve. Briefly, following sterilization procedures, under isofluorane anesthetic, a 1.5 cm incision was made dorsal to the pelvis. The biceps femoris and gluteous superficialis (right side) were separated and the sciatic nerve exposed, isolated, and 2-4 loose ligatures (5-0 chromic gut) with <1 mm spacing were placed around it. Following hemostasis, the wound was sutured (layer of muscle closed with 5-0 nylon suture, and the wound closed with surgical staples) and coated with iodine. The mice were allowed to recover on a warming plate and are returned to their home cages (soft bedding) when able to walk on their own. Two to four weeks after the surgery, TRPV3 antagonsists were tested in these mice following P.O. (1 hour pretreatment) or I.P. (30 minutes pretreatment) dosing, and mechanical allodynia evaluated where the threshold to response was assessed using calibrated von Frey monofilaments. The von Frey monofilaments were applied to the hind paw at increasing forces until the animal responded by lifting its paw. […]

| SMILES | effects vs. vehicle in the mouse Chronic Constriction Injury Model of neuropathic pain |
| --- | --- |
| CC(C)[C@H](CO)NCc1nc(-c2ccc(C(F)(F)F)nc2)ccc1F [Example 28, (2R)-2-({[5-fluoro-6′-(trifluoromethyl)-2,3′-bipyridin-6-yl]methyl}amino)-3-methylbutan-1-ol] | statistically significant effects vs. vehicle |
| CC(C)[C@H](CO)NCc1nc(C2CCCCC2)ccc1F [Example 129] | statistically significant effects vs. vehicle |
